Some test systems named below: KM12 colon; NCI-H522 lung; SF-268 CNS; DU-145 prostate; HS 578T breast; K-562 leukemia; HOP-62 NSCLC; OVCAR-4 ovarian; UACC-257 melanoma; TK-10 renal.
Common to all, as to assay: NCI anticancer screen, dose series, 48 h

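Compound exposure: 48 hours, 5 concentrations, 96-well plates. GI50: concentration for 50% inhibition of growth. TGI denotes the concentration required for complete inhibition of growth.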

For `Oc1ccc(Cc2ccc(O)c3ncccc23)c2cccnc12`, the GI50 in the assay with KM12 colon was 0.149 µM; with NCI-H522 lung it was 0.0439 µM; with SF-268 CNS, 0.0527 µM; in the assay on DU-145 prostate, 0.0564 µM; with HS 578T breast, 0.0365 µM; in the assay on K-562 leukemia it was 0.0425 µM. Also, the GI50 in the assay on HOP-62 NSCLC is 0.0442 µM; with OVCAR-4 ovarian it was 0.371 µM; in the assay on UACC-257 melanoma, 0.236 µM; in the assay on TK-10 renal, 0.238 µM. Besides, the TGI was greater than 100 µM in the assay with KM12 colon; 0.531 µM in the assay on NCI-H522 lung; greater than 100 µM with SF-268 CNS; greater than 100 µM with DU-145 prostate; greater than 100 µM in the assay with HS 578T breast; greater than 100 µM in the assay on K-562 leukemia. For the same compound, the TGI with HOP-62 NSCLC is 1.09 µM; with OVCAR-4 ovarian, greater than 100 µM; with UACC-257 melanoma, 0.709 µM; in the assay on TK-10 renal, 0.996 µM.
With `CC(=O)OC[C@H]1O[C@@H](n2ccc(=O)[nH]c2=O)[C@H](OC(C)=O)[C@@H]1OC(C)=O`, the GI50 with KM12 colon, in the assay with NCI-H522 lung, in the assay with SF-268 CNS, in the assay with DU-145 prostate, with HS 578T breast and in the assay on K-562 leukemia was greater than 100 µM in each case. In addition, the GI50 in the assay on HOP-62 NSCLC, in the assay with OVCAR-4 ovarian, with UACC-257 melanoma and in the assay on TK-10 renal was greater than 100 µM in each case. In addition, the TGI in the assay with KM12 colon, with NCI-H522 lung, in the assay on SF-268 CNS, in the assay on DU-145 prostate, in the assay with HS 578T breast and with K-562 leukemia was greater than 100 µM in each case. Also, the TGI in the assay with HOP-62 NSCLC, in the assay on OVCAR-4 ovarian, in the assay on UACC-257 melanoma and in the assay on TK-10 renal was greater than 100 µM throughout.
As for `COc1ccccc1-[n+]1cc(-c2ccc(-c3ccccc3)cc2)n2c1CCCCC2`, the GI50 is 0.288 µM in the assay with KM12 colon; 0.169 µM with NCI-H522 lung; 0.423 µM in the assay on SF-268 CNS; 0.444 µM with DU-145 prostate; 1.07 µM with HS 578T breast; 0.173 µM in the assay on K-562 leukemia. The GI50 with HOP-62 NSCLC was 1.29 µM; in the assay with OVCAR-4 ovarian it was 0.116 µM; in the assay with UACC-257 melanoma it was 0.318 µM; with TK-10 renal it was 0.638 µM. The TGI in the assay with KM12 colon was found to be 3.17 µM; in the assay on NCI-H522 lung, 9.03 µM; with SF-268 CNS, 14.8 µM; in the assay on DU-145 prostate, 14.8 µM; with HS 578T breast, 31.8 µM; with K-562 leukemia, 13.1 µM. For the same compound, the TGI with HOP-62 NSCLC came to 15.4 µM; in the assay on OVCAR-4 ovarian, 12.5 µM; with UACC-257 melanoma, 12.9 µM; in the assay with TK-10 renal it was 13 µM.
Take `Oc1ccc(/C=N\Nc2ccccn2)c(O)c1`: the GI50 with KM12 colon is 1.51 µM; with NCI-H522 lung, 1.29 µM; in the assay on SF-268 CNS, 0.494 µM; in the assay with DU-145 prostate it was 0.422 µM; in the assay on HS 578T breast it was 4.99 µM; with K-562 leukemia it was 0.482 µM. The GI50 in the assay with HOP-62 NSCLC is 2.14 µM; in the assay on OVCAR-4 ovarian it was 2.87 µM; in the assay with UACC-257 melanoma, 2.73 µM; in the assay on TK-10 renal, 8.41 µM. Besides, the TGI was 20.4 µM in the assay on KM12 colon; greater than 100 µM with NCI-H522 lung; 6 µM in the assay with SF-268 CNS; 4.32 µM in the assay with DU-145 prostate; greater than 100 µM in the assay on HS 578T breast; greater than 100 µM in the assay on K-562 leukemia. For the same compound, the TGI with HOP-62 NSCLC is 9.55 µM; in the assay with OVCAR-4 ovarian, greater than 100 µM; with UACC-257 melanoma, 16.7 µM; in the assay on TK-10 renal, greater than 100 µM.
Turning to `Cc1c(N=Nc2ccc([N+](=O)[O-])cc2)nc2scc(-c3ccccc3)n12`, the TGI in the assay on KM12 colon, in the assay on NCI-H522 lung, with SF-268 CNS, in the assay on DU-145 prostate, in the assay on HS 578T breast and with K-562 leukemia was greater than 100 µM in each case. Also, the TGI in the assay on HOP-62 NSCLC, in the assay with OVCAR-4 ovarian, in the assay with UACC-257 melanoma and with TK-10 renal was greater than 100 µM throughout.
In the case of `COc1cc(Nc2nc3cc(N)cc(N)c3nc2-c2ccccc2)cc(OC)c1`, the GI50 is 13.3 µM with KM12 colon; 9.51 µM in the assay with NCI-H522 lung; 5.59 µM in the assay with SF-268 CNS; 22.7 µM in the assay with DU-145 prostate; 10.9 µM in the assay on HS 578T breast; 27.5 µM with K-562 leukemia. The GI50 was 19.6 µM in the assay with HOP-62 NSCLC, 17.8 µM in the assay with OVCAR-4 ovarian, 15.9 µM in the assay on UACC-257 melanoma and 13.1 µM in the assay with TK-10 renal. Further, the TGI in the assay with KM12 colon was 31.2 µM; in the assay with NCI-H522 lung, 28.8 µM; with SF-268 CNS, 55.8 µM; with DU-145 prostate, greater than 100 µM; in the assay with HS 578T breast, 63.8 µM; in the assay with K-562 leukemia, greater than 100 µM. Further, the TGI is 53.8 µM with HOP-62 NSCLC, greater than 100 µM with OVCAR-4 ovarian, 48 µM in the assay on UACC-257 melanoma and 42.7 µM with TK-10 renal.
In the case of `O=C(/C=C/c1ccc(OCC(=O)N2CCN(c3ccccc3)CC2)cc1)c1ccc(Cl)cc1`, the TGI was greater than 100 µM with KM12 colon; greater than 100 µM in the assay with NCI-H522 lung; greater than 92.7 µM in the assay on SF-268 CNS; greater than 100 µM with DU-145 prostate; 62.3 µM in the assay with HS 578T breast; greater than 100 µM in the assay with K-562 leukemia. The TGI is 55.3 µM with HOP-62 NSCLC, greater than 97.7 µM with OVCAR-4 ovarian, greater than 100 µM in the assay on UACC-257 melanoma and greater than 90.6 µM in the assay with TK-10 renal.
Regarding `N#Cc1c(C(=O)c2ccccc2)cnn1-c1ccccc1`, the GI50 in the assay with KM12 colon, in the assay with NCI-H522 lung, with SF-268 CNS, in the assay with DU-145 prostate, in the assay on HS 578T breast and in the assay on K-562 leukemia was greater than 25 µM each time. Also, the GI50 in the assay with HOP-62 NSCLC, in the assay with OVCAR-4 ovarian, in the assay with UACC-257 melanoma and with TK-10 renal was greater than 25 µM in each case. Moreover, the TGI with KM12 colon, in the assay on NCI-H522 lung, with SF-268 CNS, with DU-145 prostate, in the assay with HS 578T breast and with K-562 leukemia was greater than 25 µM throughout. Also, the TGI in the assay on HOP-62 NSCLC, in the assay on OVCAR-4 ovarian, with UACC-257 melanoma and in the assay with TK-10 renal was greater than 25 µM throughout.

Source of the values: PubChem BioAssay (NCI).
